From patent publication US20240216395A1, “19-NOR C3,3-DISUBSTITUTED C21 -N-PYRAZOLYL STEROID FOR USE IN TREATING MAJOR DEPRESSIVE DISORDER AND […]” (priority 2021, published 2024)

Columns and labels:
patients with MDD = assay: Phase 2 clinical trial of Compound (1) 30 mg in MDD (NCT03000530): TEAEs; format: in vivo, human
From the text: The study design and results, if applicable, of the clinical trials identified by the NCT numbers are each incorporated by reference herein in its entirety.
The majority of patients receiving Compound (1) and experiencing a TEAE reported TEAEs mild and moderate in severity: clinical trial of Example 4 94%, Phase 2 clinical trial conducted by Applicant 100%, previous Phase 3 clinical trial conducted by Applicant 98%, and clinical trial of Example 1 95.0%.

[1] = aqueous solution formulation (Hoffmann 2020); cited from earlier work
[2] = test system: adult female subjects with severe postpartum depression (PPD); assay: Phase 3 placebo-controlled study of Compound (1) 30 mg QD for 14 days in PPD (NCT02978326, ROBIN): efficacy and post hoc analyses; format: in vivo, human
Method: Example 4. A Multicenter, Randomized, Double-Blind, Parallel-Group, Placebo-Controlled Study Evaluating the Efficacy, Safety, and Pharmacokinetics of Compound (1) in the Treatment of Adult Female Subjects with Severe Postpartum Depression
This was a multicenter, randomized, double-blind, parallel-group, placebo-controlled study of the efficacy, safety, and pharmacokinetics of Compound (1) in adult subjects diagnosed with severe PPD.
Randomized subjects received 30 mg QD of study drug (Compound (1) Capsules or placebo). Those subjects who could not tolerate 30 mg QD will received 20 mg QD for the remainder of the Treatment Period. Subjects who experienced intolerable adverse events (AEs) at the 20 mg QD dose level could be discontinued from study treatment at the discretion of the Investigator. Subjects were instructed to take the study drug with food. Study drug was self-administered by subjects in the evening (8:00 pm±30 min) on an outpatient basis for the entire 14-day Treatment Period. Study drug administration was monitored via a follow-up call from the site each evening (within approximately 1 hour following the scheduled evening dose) on Days 1 to 14.
The primary efficacy endpoint was the change from baseline in HAM-D total score at the end of the Treatment Period (Day 15). The HAM-D total score was calculated as the sum of the 17 individual item scores.
Secondary endpoints included: • Change from baseline in the HAM-D total score at all time points other than Day 15; • HAM-D Response defined as a 50% or greater reduction from baseline in HAM-D total score; • HAM-D Remission defined as a HAM-D total score of ≤7; • Change from baseline in MADRS total score at Day 15 and other time points; • CGI-I Response defined as “very much improved” or “much improved”; • Change from baseline in HAM-A total score at Day 15 and other time points; • Changes from baseline in HAM-D subscales and individual item scores at Day 15 and other time points
The change from baseline in HAM-D total score was analyzed using a mixed effects model for repeated measures (MMRM); the model included center, treatment, baseline HAM-D total score, assessment time point, and time point-by-treatment as explanatory variables. All post-baseline time points were included in the model. The primary comparison was between Compound (1) and placebo at the 15-day time point. Model-based point estimates (e.g., least squares [LS] means), 95% confidence intervals, and p-values were reported. An unstructured covariance structure was used to model the within-subject errors. Continuous secondary and other variables were analyzed using similar methods.
Binary efficacy endpoints, including responder and remission endpoints, were summarized and analyzed using the generalized estimating equation method.
As indicated in Example 4, women (N=151), ages 18-45, ≤6 months postpartum, diagnosed with PPD (defined as a major depressive episode with onset in the 3rd trimester or ≤4 weeks postpartum), and a baseline HAMD-17 total score ≥26, were randomized to study drug in an outpatient setting.
Patients were randomized 1:1 to receive oral Compound (1) 30 mg or placebo once daily for 14 days, with 4 weeks follow-up. The change from baseline (CFB) vs placebo in HAMD-17 at Day 15 was the primary endpoint. Treatment emergent adverse events (TEAEs) were assessed throughout the study.
Post hoc analyses explored concurrent anxiety and depression improvement using a combination of scales at Days 15 and 45: (1) HAMD-17≤7+HAM-A≤7, or (2) MADRS ≤10+HAM-A≤7. Depression improvement was defined as either a HAMD-17 total score ≤7, or a MADRS total score […]. Improvement in anxiety symptoms was defined as a HAM-A total score ≤7.
CFB in HAMD-17 total score was evaluated using the least-squares mean from a mixed effect model for repeated measures. […]

C[C@@]1(O)CC[C@H]2[C@H](CC[C@@H]3[C@@H]2CC[C@]2(C)[C@@H](C(=O)Cn4cc(C#N)cn4)CC[C@@H]32)C1 [Compound (1), 1-(2-((3R,5R,8R,9R,10S,13S,14S,17S)-3-hydroxy-3,13-dimethylhexadecahydro-1H-cyclopenta[a]phenanthren-17-yl)-2-oxoethyl)-1H-pyrazole-4-carbonitrile]
Diarrhea (patients with MDD; 30 mg (N = 45)): 0 n (%)
URTI (patients with MDD; 30 mg (N = 45)): 0 n (%)
Patients with a TEAE whose TEAEs were mild and moderate in severity (patients with MDD; Phase 2 clinical trial): 100%
T½ values reported by a prior study [1]: 14 to 19 h
HAMD-17 early insomnia item mean reduction from baseline [2]: −1.3
HAMD-17 late insomnia item mean reduction from baseline [2]: −1.3
HAMD-17 middle insomnia item mean reduction from baseline [2]: −1.3
EPDS-3A least square mean CFB ([2]; Day 8): −2.2
Concurrent improvement HAMD-17 ≤ 7 and HAM-A ≤ 7, OR (95% CI) vs placebo ([2]; Day 15): 2.75 (1.30, 5.84)
Concurrent improvement MADRS ≤ 10 and HAM-A ≤ 7, OR (95% CI) vs placebo ([2]; Day 15): 2.35 (1.15, 4.80)
LS mean difference vs placebo (as printed after HAMD-17 CFB) ([2]; Day 15): −2.4
MADRS Remission rate ([2]; Day 15): 54.1%
MADRS Response rate ([2]; Day 15): 73.0%
HAMD-17 total score CFB ([2]; Day 15 (primary endpoint)): −17.8
Concurrent improvement HAMD-17 ≤ 7 and HAM-A ≤ 7, OR (95% CI) vs placebo ([2]; Day 45): 3.45 (1.66, 7.16)
Concurrent improvement MADRS ≤ 10 and HAM-A ≤ 7, OR (95% CI) vs placebo ([2]; Day 45): 3.09 (1.50, 6.36)
EPDS-3A least square mean CFB ([2]; Day 45): −3.6
HAM-A Remission rate ([2]; day 3): 27.0%
HAMD-17-Ins CFB, Compound (1)-placebo difference ([2]; day 3): −0.841
HAMD-17 A/S least squares mean CFB ([2]; day 3): −3.8
HAM-A Response rate ([2]; day 8): 69.3%
EPDS remission (<13) rate ([2]; day 15): 64%
HAMD-17 A/S Response rate ([2]; day 15): 68.9%
HAMD-17 Remission rate ([2]; day 15): 45%
HAMD-17 Response rate ([2]; day 15): 72%
NNT for EPDS remission <13 ([2]; day 15): 6
NNT, rapid outcomes ([2]; day 15): 5
HAMD-17 A/S least squares mean CFB ([2]; day 45): −5.7
NNT, sustained outcomes ([2]; day 45): 5
PHQ-9 total score least squares mean decrease ([2]; day 45): −11.8
SF-36v2 domains (SF, MH, PF, RP, BP) and MCS vs placebo ([2]; day 45): statistically significant improvements
Sustained HAMD-17 Remission rate ([2]; days 15 and 45): 37%
Sustained HAMD-17 Response rate ([2]; days 15 and 45): 59%
